Read-outs that look alike come from different tables or passages of the source.
Target: 6×HIS-tankyrase 1 (1091-1325) (Homo sapiens (Human), UniProt O95271)
Test: biochemical
Type: biochemical
Settings: 400 nM NAD, 60 minutes at room temperature, read-out: TNKS1 IP IC50

Chain of 6×HIS-tankyrase 1 (1091-1325) (O95271 1091-1325): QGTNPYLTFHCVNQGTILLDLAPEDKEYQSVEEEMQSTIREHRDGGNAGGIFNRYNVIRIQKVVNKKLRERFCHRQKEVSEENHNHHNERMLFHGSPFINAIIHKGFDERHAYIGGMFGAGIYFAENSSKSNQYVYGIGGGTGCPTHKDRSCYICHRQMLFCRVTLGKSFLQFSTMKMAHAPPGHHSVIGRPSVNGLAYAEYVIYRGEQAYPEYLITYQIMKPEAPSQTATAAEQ

IC50 ([…] enzyme) [µM] | Structure (SMILES) | IC50 (0.25 nM enzyme) [µM]
– | CC1(C)OC(=O)N([C@H]2C[C@H](c3nnc(-c4ccccc4)o3)C2)[C@@H]1c1ccccc1 (single isomer, unassigned) [Example 176] | 3.13
– | CC1(C)OC(=O)N([C@H]2C[C@H](c3nnc(-c4ccccc4)o3)C2)[C@H]1c1ccccc1 (single isomer, unassigned) [Example 177] | 1.02
1.34 | CC1(C)OC(=O)N(c2ccc(C(=O)Nc3cnccc3O)cc2)[C@H]1c1ccccc1 [Example 21, (S)-4-(5,5-dimethyl-2-oxo-4-phenyloxazolidin-3-yl)-N-(4-hydroxypyridin-3-yl)benzamide] | –
0.00691 | CC1(C)OC(=O)N(C2CC=C(c3cc4ccncc4[nH]c3=O)CC2)[C@H]1c1ccccc1 (stereo partly drawn) [Example 87, (4S)-5,5-dimethyl-3-(4-(2-oxo-1,2-dihydro-1,7-naphthyridin-3-yl)cyclohex-3-en-1-yl)-4-phenyloxazolidin-2-one] | –
– | CC1(C)OC(=O)N([C@H]2CC[C@H](c3cccnc3)CC2)[C@H]1c1ccccc1 [Example 133, (S)-5,5-dimethyl-4-phenyl-3-((1r,4s)-4-(pyridin-3-yl)cyclohexyl)oxazolidin-2-one] | 1.38
– | Cc1ccc([C@H]2CC[C@@H](N3C(=O)OC(C)(C)[C@@H]3c3ccccc3)CC2)cn1 [Example 134, (S)-5,5-dimethyl-3-((1 s,4r)-4-(6-methylpyridin-3-yl)cyclohexyl)-4-phenyloxazolidin-2-one] | > 46.3
– | Cc1ccc([C@H]2CC[C@H](N3C(=O)OC(C)(C)[C@@H]3c3ccccc3)CC2)cn1 [Example 135, (S)-5,5-dimethyl-3-((1r,4s)-4-(6-methylpyridin-3-yl)cyclohexyl)-4-phenyloxazolidin-2-one] | 1.38
– | CC1(C)OC(=O)N([C@H]2CC[C@@H](c3cnc4[nH]ccc4c3)CC2)[C@H]1c1ccccc1 [Example 136, (S)-3-((1s,4r)-4-(1H-pyrrolo[2,3-b]pyridin-5-yl)cyclohexyl)-5,5-dimethyl-4-phenyloxazolidin-2-one] | 0.00517
– | CC1(C)OC(=O)N([C@H]2CC[C@H](c3cnc4[nH]ccc4c3)CC2)[C@H]1c1ccccc1 [Example 137, (S)-3-((1r,4s)-4-(1H-pyrrolo[2,3-b]pyridin-5-yl)cyclohexyl)-5,5-dimethyl-4-phenyloxazolidin-2-one] | 0.218
– | CC1(C)OC(=O)N([C@H]2CC[C@@H](c3cc4ccncc4[nH]c3=O)CC2)[C@H]1c1ccccc1 [Example 138, (S)-5,5-dimethyl-3-((1s,4r)-4-(2-oxo-1,2-dihydro-1,7-naphthyridin-3-yl)cyclohexyl)-4-phenyloxazolidin-2-one] | 1.25
– | CC1(C)OC(=O)N([C@H]2CC[C@H](c3cc4ccncc4[nH]c3=O)CC2)[C@H]1c1ccccc1 [Example 139, (S)-5,5-dimethyl-3-((1r,4s)-4-(2-oxo-1,2-dihydro-1,7-naphthyridin-3-yl)cyclohexyl)-4-phenyloxazolidin-2-one] | 0.0115
0.755 | CC1(C)OC(=O)N([C@H]2CC[C@H](NC(=O)c3ccccc3)CC2)[C@H]1c1ccccc1 [Example 141, N-((1S,4r)-4-((S)-5,5-dimethyl-2-oxo-4-phenyloxazolidin-3-yl)cyclohexyl)benzamide] | –
0.205 | CC1(C)OC(=O)N([C@H]2CC[C@H](NC(=O)c3ccncc3)CC2)[C@H]1c1ccccc1 [Example 142, N-((1S,4r)-4-((S)-5,5-dimethyl-2-oxo-4-phenyloxazolidin-3-yl)cyclohexyl)isonicotinamide] | –
0.225 | Cn1cc(C(=O)N[C@H]2CC[C@H](N3C(=O)OC(C)(C)[C@@H]3c3ccccc3)CC2)c2ccccc21 [Example 143, N-((1R,4r)-4-((R)-5,5-dimethyl-2-oxo-4-phenyloxazolidin-3-yl)cyclohexyl)-1-methyl-1H-indole-3-carboxamide] | –
0.222 | Cn1cc2c(C(=O)N[C@H]3CC[C@H](N4C(=O)OC(C)(C)[C@H]4c4ccccc4)CC3)cccc2n1 [Example 144, N-((1R,4r)-4-((R)-5,5-dimethyl-2-oxo-4-phenyloxazolidin-3-yl)cyclohexyl)-2-methyl-2H-indazole-4-carboxamide] | –
0.0137 | Cn1cc2cccc(C(=O)N[C@H]3CC[C@H](N4C(=O)OC(C)(C)[C@@H]4c4ccccc4)CC3)c2n1 [Example 145, N-((1S,4r)-4-((S)-5,5-dimethyl-2-oxo-4-phenyloxazolidin-3-yl)cyclohexyl)-2-methyl-2H-indazole-7-carboxamide] | –
0.00918 | CC1(C)OC(=O)N([C@H]2CC[C@H](NC(=O)c3cnn4cccnc34)CC2)[C@H]1c1ccccc1 [Example 146, N-((1S,4r)-4-((S)-5,5-dimethyl-2-oxo-4-phenyloxazolidin-3-yl)cyclohexyl)pyrazolo[1,5-a]pyrimidine-3-carboxamide] | –

IC50 ([…] enzyme) [µM] | Structure (SMILES) | IC50 (0.25 nM enzyme) [µM]
0.0264 | CC1(C)OC(=O)N([C@H]2CC[C@H](NC(=O)c3ccc4cc[nH]c4n3)CC2)[C@H]1c1ccccc1 [Example 147, N-((1S,4r)-4-((S)-5,5-dimethyl-2-oxo-4-phenyloxazolidin-3-yl)cyclohexyl)-1H-pyrrolo[2,3-b]pyridine-6-carboxamide] | –
0.034 | CC1(C)OC(=O)N([C@H]2CC[C@H](NC(=O)c3cc4ccncc4[nH]3)CC2)[C@H]1c1ccccc1 [Example 149, N-((1S,4r)-4-((S)-5,5-dimethyl-2-oxo-4-phenyloxazolidin-3-yl)cyclohexyl)-1H-pyrrolo[2,3-c]pyridine-2-carboxamide] | –
1.54 | CC1(C)OC(=O)N([C@H]2CC[C@H](NC(=O)c3ccc4scnc4c3)CC2)[C@H]1c1ccccc1 [Example 150, N-((1S,4r)-4-((S)-5,5-dimethyl-2-oxo-4-phenyloxazolidin-3-yl)cyclohexyl)benzo[d]thiazole-5-carboxamide] | –
16.6 | Cn1cncc1C(=O)N[C@H]1CC[C@H](N2C(=O)OC(C)(C)[C@@H]2c2ccccc2)CC1 [Example 151, N-((1S,4r)-4-((S)-5,5-dimethyl-2-oxo-4-phenyloxazolidin-3-yl)cyclohexyl)-1-methyl-1H-imidazole-5-carboxamide] | –
0.228 | CC1(C)OC(=O)N([C@H]2CC[C@H](NC(=O)c3ccnc4[nH]ccc34)CC2)[C@H]1c1ccccc1 [Example 152, N-((1S,4r)-4-((S)-5,5-dimethyl-2-oxo-4-phenyloxazolidin-3-yl)cyclohexyl)-1H-pyrrolo[2,3-b]pyridine-4-carboxamide] | –
0.848 | CC1(C)OC(=O)N([C@H]2CC[C@H](NC(=O)c3cccc4[nH]ncc34)CC2)[C@H]1c1ccccc1 [Example 153, N-((1S,4r)-4-((S)-5,5-dimethyl-2-oxo-4-phenyloxazolidin-3-yl)cyclohexyl)-1H-indazole-4-carboxamide] | –
2.32 | CC(C)c1cc(C(=O)N[C@H]2CC[C@H](N3C(=O)OC(C)(C)[C@@H]3c3ccccc3)CC2)[nH]n1 [Example 154, N-((1S,4r)-4-((S)-5,5-dimethyl-2-oxo-4-phenyloxazolidin-3-yl)cyclohexyl)-3-isopropyl-1H-pyrazole-5-carboxamide] | –
0.548 | CC1(C)OC(=O)N([C@H]2CC[C@H](NC(=O)c3cnc4ccccc4c3)CC2)[C@@H]1c1ccccc1 [Example 155, N-((1R,4r)-4-((R)-5,5-dimethyl-2-oxo-4-phenyloxazolidin-3-yl)cyclohexyl)quinoline-3-carboxamide] | –
0.0768 | CC1(C)OC(=O)N([C@H]2CC[C@H](NC(=O)c3nc4ccccc4[nH]3)CC2)[C@H]1c1ccccc1 [Example 157, N-((1S,4r)-4-((S)-5,5-dimethyl-2-oxo-4-phenyloxazolidin-3-yl)cyclohexyl)-1H-benzo[d]imidazole-2-carboxamide] | –
0.142 | CC1(C)OC(=O)N([C@H]2CC[C@H](NC(=O)c3ccc[nH]3)CC2)[C@H]1c1ccccc1 [Example 158, N-((1S,4r)-4-((S)-5,5-dimethyl-2-oxo-4-phenyloxazolidin-3-yl)cyclohexyl)-1H-pyrrole-2-carboxamide] | –
1.56 | CC1(C)OC(=O)N([C@H]2CC[C@H](NC(=O)c3ccc4nccn4c3)CC2)[C@H]1c1ccccc1 [Example 159, N-((1S,4r)-4-((S)-5,5-dimethyl-2-oxo-4-phenyloxazolidin-3-yl)cyclohexyl)imidazo[1,2-a]pyridine-6-carboxamide] | –
1.46 | CC1(C)OC(=O)N([C@H]2CC[C@H](NC(=O)c3nccs3)CC2)[C@H]1c1ccccc1 [Example 160, N-((1S,4r)-4-((S)-5,5-dimethyl-2-oxo-4-phenyloxazolidin-3-yl)cyclohexyl)thiazole-2-carboxamide] | –
0.35 | CC1(C)OC(=O)N([C@H]2CC[C@H](NC(=O)c3cnn(-c4ccccc4)c3)CC2)[C@H]1c1ccccc1 [Example 161, N-((1S,4r)-4-((S)-5,5-dimethyl-2-oxo-4-phenyloxazolidin-3-yl)cyclohexyl)-1-phenyl-1H-pyrazole-4-carboxamide] | –
0.101 | CC1(C)OC(=O)N([C@H]2CC[C@H](NC(=O)c3cn4ccccc4n3)CC2)[C@@H]1c1ccccc1 [Example 162, N-((1R,4r)-4-((R)-5,5-dimethyl-2-oxo-4-phenyloxazolidin-3-yl)cyclohexyl)imidazo[1,2-a]pyridine-2-carboxamide] | –
0.22 | COc1ccccc1C(=O)N[C@H]1CC[C@H](N2C(=O)OC(C)(C)[C@@H]2c2ccccc2)CC1 [Example 163, N-((1S,4r)-4-((S)-5,5-dimethyl-2-oxo-4-phenyloxazolidin-3-yl)cyclohexyl)-2-methoxybenzamide] | –
0.0519 | CC1(C)OC(=O)N([C@H]2CC[C@H](NC(=O)c3coc(-c4ccccc4)n3)CC2)[C@H]1c1ccccc1 [Example 164, N-((1S,4r)-4-((S)-5,5-dimethyl-2-oxo-4-phenyloxazolidin-3-yl)cyclohexyl)-2-phenyloxazole-4-carboxamide] | –

Structure (SMILES) | IC50 ([…] enzyme) [µM] | IC50 (0.25 nM enzyme) [µM]
CC1(C)OC(=O)N(C2CC(c3nnc(-c4ccccc4)o3)C2)[C@@H]1c1ccccc1 (mixture of isomers) [Example 175, Mixture of (R)-5,5-dimethyl-4-phenyl-3-((1r,3R)-3-(5-phenyl-1,3,4-oxadiazol-2-yl)cyclobutyl)oxazolidin-2-one compound and (S)-5,5-dimethyl-4-phenyl-3-((1r,3S)-3-(5-phenyl-1,3,4-oxadiazol-2-yl)cyclobutyl)oxazolidin-2-one (1:1)] | 1.47 | –

— patent publication US9340549B2, “Oxazolidinone compounds and derivatives thereof” (priority 2012, dated 2016)
